“And” between values parts separate entries of the source, which are not always exact repeats. Equal values may be shown once.
Tested on: kidney tissues of treated or untreated rats
Experiment: Real-time qRT-PCR of marker transcripts in kidney tissue panel, discovery stage (Table 22)
Assay type: in vivo, rat
Set-up: AI502869_DB71_seg0 normalized Real Time PCR expression: unit not given beside the values
Conditions: rat kidney, listed as CadCl
Description: Before RT preparation the RNA was treated with DNA-free (Ambion, cat. No. AM1906) DNase treatment and removal—according to manufacturer protocol. DNase procedure was repeated until no DNA is detected in a PCR reaction using the RNA samples.
The mixture is then incubated for 5 min at 65° C. and then quickly chilled on ice. Thereafter, 20 μl of 5× SuperscriptII first strand buffer (Invitrogen, Cat. No. Y00146), 9.6 μl 0.1M DTT (Invitrogen, Cat. No. Y00147) and 160 units RNasin (Promega, Cat. No. N251A) are added, and the mixture is incubated for 10 min at 25° C., followed by further incubation at 42° C. for 2 min. […] The resulting cDNA is diluted 1:20 in TE buffer (10 mM Tris pH=8, 1 mM EDTA pH=8).
cDNA (5 μl), prepared as described above, is used as a template in Real-Time PCR reactions using the SYBR Green I assay (PE Applied Biosystem) with specific primers in 100 nM concentration if not indicated otherwise and UNG Enzyme (Eurogentech or equal) Amplification is effected as follows: 50° C. for 2 min, 95° C. for 10 min, and then 40 cycles of 95° C. for 15 sec, followed by 60° C. for 1 min (if not indicated otherwise). Amplification step is followed by dissociation step. Detection is performed by using the PE Applied Biosystem SDS 7000. The cycle in which the reactions achieved a threshold level (Ct) of fluorescence is registered and is used to calculate the relative transcript quantity in the RT reactions. Non-detected samples are assigned Ct value of 41 and are calculated accordingly. The relative quantity is calculated using the equation Q=efficiencŷ-Ct. The efficiency of the PCR reaction is calculated from a standard curve, created by using serial dilutions of several reverse transcription (RT) reactions. To minimize inherent differences in the RT reaction, the resulting relative quantities are normalized to normalization factor calculated as follows: […]
The relative quantity (Q) of each housekeeping gene in each sample is calculated as described above. In order to calculate the “relative Q relative to MED” each Q for each HSKP gene is divided by the median quantity of this gene in all panel samples. To finally achieve the normalization factor of each sample the geometric mean of all four “relative Q relative to MED” was calculated. The normalization factor was then used for further calculations.
The markers of the present invention were tested with regard to their expression in a panel of kidney tissues samples from treated and control rats. Unless otherwise noted, all experimental data relates to the novel polynucleotides and proteins of the present invention, named according to the segment being tested (as expression was tested through RT-PCR as described). Tests were then performed as described in the “Materials and Experimental Procedures” section above.
The qRT-PCR measurements were normalized according to each samples normalization factor as described in “RT Preparation and Real-Time qRT-PCR Analysis” and further multiplied by a constant factor for ease of viewing.

[1] = day5, individual animals (F and M)
[2] = day28, individual animals (F and M)

[Cl][Cd][Cl] [Cadmium chloride]
AW919147_DB71_seg0 normalized Real Time PCR expression (day1, individual animals): 1 (2×) and 1.21 and 0.76 and 1.1 and 1.02
BI293562_DB71_seg2 normalized Real Time PCR expression (day1, individual animals): 0.36 and 0.4 and 0.61 and 0.5 and 0.51 and 0.39
H31045_DB71_seg5 normalized Real Time PCR expression (day1, individual animals): 1.97 and 0.39 (2×) and 0.19 (2×) and 0.18
H31799_DB71_seg23 normalized Real Time PCR expression (day1, individual animals): 1 (2×) and 1.24 and 0.91 and 0.9 and 1.15
H31883_DB71_seg13 normalized Real Time PCR expression (day1, individual animals): 0.73 and 0.63 and 0.87 and 0.65 and 0.71 and 0.78
H33998_DB71_seg19 normalized Real Time PCR [1]: 2 and 0.82 and 1.39 and 1.36 and 1.64
MUSCYCG1R_DB81_seg15-17 normalized Real Time PCR [1]: 1.72 and 1.13 and 1.2 and 0.97 and 1.15
RATLRFI_DB71_seg9 normalized Real Time PCR [1]: 0.35 and 0.31 and 0.17 and 0.18 and 0.29
RATRAB13X_DB71_seg11-13 normalized Real Time PCR [1]: 0.95 and 0.9 and 0.75 (2×) and 0.62
RNU24174_DB71_seg8 normalized Real Time PCR [1]: 0.33 and 0.27 and 0.12 (2×) and 0.13
W41270_DB81_seg11 normalized Real Time PCR [1]: 2.49 and 1.17 and 1.02 and 1.43 and 1.52
W64472_DB81_seg2 normalized Real Time PCR [1]: 1.65 and 0.78 and 2.23 and 1.89 and 1.63
W83813_DB81_seg27 normalized Real Time PCR [1]: 3.79 and 1.59 and 1.48 and 1.67 and 1.76
AA686189_DB71_seg6 normalized Real Time PCR expression (day5, individual animals): 0.47 and 0.29 and 0.39 and 0.5 and 0.38
AA799594_DB71_seg0 normalized Real Time PCR expression (day5, individual animals): 1.12 and 0.9 and 1.23 and 0.98 and 1.01
AA964541_DB71_seg0 normalized Real Time PCR expression (day5, individual animals): 0.29 and 0.27 and 0.42 (2×) and 0.41
AI045075_DB71_seg6 normalized Real Time PCR expression (day5, individual animals): 0.98 and 0.49 and 0.85 and 0.81 and 0.83
AI454051_DB71_seg0 normalized Real Time PCR expression (day5, individual animals): 1.54 and 1.35 and 0.84 and 0.68 and 0.92
AI502869_DB71_seg0 normalized Real Time PCR expression (day5, individual animals): 0.94 and 0.73 and 0.69 and 0.68 and 0.85
AW919147_DB71_seg0 normalized Real Time PCR expression (day5, individual animals): 1.06 and 1.86 and 1.3 and 0.94 and 1
BI293562_DB71_seg2 normalized Real Time PCR expression (day5, individual animals): 0.43 and 0.63 and 0.48 and 0.88 and 0.78
H31045_DB71_seg5 normalized Real Time PCR expression (day5, individual animals): 0.56 and 0.32 and 0.42 and 0.4 and 0.46
H31799_DB71_seg23 normalized Real Time PCR expression (day5, individual animals): 0.83 and 0.99 and 1.17 and 0.98 and 0.94
H31883_DB71_seg13 normalized Real Time PCR expression (day5, individual animals): 0.87 and 0.86 and 0.83 and 0.78 and 0.64
H33998_DB71_seg19 normalized Real Time PCR [2]: 1.26 and 0.59 and 0.43 and 0.45 and 0.26 and 0.41
MUSCYCG1R_DB81_seg15-17 normalized Real Time PCR [2]: 0.88 and 0.71 and 0.65 and 0.72 and 0.44 and 0.58
RATLRFI_DB71_seg9 normalized Real Time PCR [2]: 0.66 and 0.85 and 1.78 and 0.28 and 0.67 and 0.56
RATRAB13X_DB71_seg11-13 normalized Real Time PCR [2]: 1.37 and 0.92 and 0.96 and 1.11 and 1.08 and 0.88
RNU24174_DB71_seg8 normalized Real Time PCR [2]: 0.21 and 0.45 and 1.21 and 0.25 (2×) and 0.39
W41270_DB81_seg11 normalized Real Time PCR [2]: 0.86 and 0.55 and 0.83 and 0.33 and 0.27 and 0.39
W64472_DB81_seg2 normalized Real Time PCR [2]: 0.89 and 0.55 and 0.43 and 0.67 and 0.47 and 0.57
W83813_DB81_seg27 normalized Real Time PCR [2]: 0.95 and 0.64 and 0.46 (2×) and 0.34 and 0.53
AA686189_DB71_seg6 normalized Real Time PCR expression (day28, individual animals): 0.64 and 0.58 and 1.94 and 0.4 and 0.51 and 0.82
AA799594_DB71_seg0 normalized Real Time PCR expression (day28, individual animals): 1.14 and 0.88 and 0.37 and 0.66 and 0.77 and 0.83
AA964541_DB71_seg0 normalized Real Time PCR expression (day28, individual animals): 0.32 (2×) and 0.42 and 1.72 and 0.55 and 0.72
AI045075_DB71_seg6 normalized Real Time PCR expression (day28, individual animals): 1.72 and 1.15 and 0.86 and 0.75 and 0.63 and 0.71
AI454051_DB71_seg0 normalized Real Time PCR expression (day28, individual animals): 0.79 and 1.05 and 0.54 and 1.29 and 1.31 and 0.75
AI502869_DB71_seg0 normalized Real Time PCR expression (day28, individual animals): 0.73 and 1.22 and 0.44 and 2.47 and 2.93 and 1.18
AW919147_DB71_seg0 normalized Real Time PCR expression (day28, individual animals): 0.77 and 0.91 and 0.42 and 1.31 and 1.18 and 0.68
BI293562_DB71_seg2 normalized Real Time PCR expression (day28, individual animals): 0.4 and 0.81 and 2.59 and 0.72 and 1.35 and 0.31
H31045_DB71_seg5 normalized Real Time PCR expression (day28, individual animals): 2.88 and 0.83 and 0.57 and 2.23 and 2.41 and 2
H31799_DB71_seg23 normalized Real Time PCR expression (day28, individual animals): 1.59 and 0.94 and 0.67 and 1.05 and 1.02 and 0.76
H31883_DB71_seg13 normalized Real Time PCR expression (day28, individual animals): 0.97 and 1.02 and 0.86 (2×) and 0.95 and 0.8

— patent US20160177395A1, “BIOMARKERS FOR THE PREDICTION OF RENAL INJURY” (priority 2007, published 2016)
